The values that follow come from ChEMBL document CHEMBL1146173, “New pyrimido[5,4-b]indoles and [1]benzothieno[3,2-d]pyrimidines: high affinity ligands for the alpha(1)-adrenoceptor subtypes” (Bioorg Med Chem Lett, 2006).

Assay [1] deals with T1, Alpha-1A adrenergic receptor (Rattus norvegicus) (UniProt P43140).
T1 sequence (whole entry): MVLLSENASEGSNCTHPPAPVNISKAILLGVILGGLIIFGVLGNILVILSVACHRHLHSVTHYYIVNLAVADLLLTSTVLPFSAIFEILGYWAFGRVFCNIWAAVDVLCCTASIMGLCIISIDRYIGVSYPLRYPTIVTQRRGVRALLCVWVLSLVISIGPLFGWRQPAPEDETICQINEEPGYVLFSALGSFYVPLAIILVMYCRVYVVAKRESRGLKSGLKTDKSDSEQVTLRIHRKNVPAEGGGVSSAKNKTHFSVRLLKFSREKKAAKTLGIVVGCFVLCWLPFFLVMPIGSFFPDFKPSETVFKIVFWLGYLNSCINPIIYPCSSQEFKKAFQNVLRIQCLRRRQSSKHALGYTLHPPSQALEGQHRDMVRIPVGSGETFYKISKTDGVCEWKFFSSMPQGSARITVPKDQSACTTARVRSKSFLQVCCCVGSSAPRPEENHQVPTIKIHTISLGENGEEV
As to the kind of experiment: Antagonist activity at adrenergic alpha 1A receptor in rat prostatic vas deferens. It counts as functional, tissue-based.

Assay [2] deals with T2, Alpha-1B adrenergic receptor (Rattus norvegicus) (UniProt P15823).
T2 sequence (whole entry): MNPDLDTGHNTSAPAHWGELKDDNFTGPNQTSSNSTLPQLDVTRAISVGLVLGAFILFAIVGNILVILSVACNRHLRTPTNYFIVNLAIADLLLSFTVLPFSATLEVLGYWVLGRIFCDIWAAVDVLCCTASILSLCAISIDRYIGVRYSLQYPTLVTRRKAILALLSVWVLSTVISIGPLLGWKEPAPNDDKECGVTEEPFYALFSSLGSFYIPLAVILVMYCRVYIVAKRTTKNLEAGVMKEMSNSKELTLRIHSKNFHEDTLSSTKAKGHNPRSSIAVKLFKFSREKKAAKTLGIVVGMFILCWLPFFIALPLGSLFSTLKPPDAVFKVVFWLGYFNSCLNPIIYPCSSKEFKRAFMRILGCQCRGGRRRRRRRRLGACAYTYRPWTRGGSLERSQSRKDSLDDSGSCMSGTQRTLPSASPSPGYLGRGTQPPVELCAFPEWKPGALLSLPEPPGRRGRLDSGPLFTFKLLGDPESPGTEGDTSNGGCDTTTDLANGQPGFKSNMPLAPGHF
As to the kind of experiment: Antagonist activity at adrenergic alpha 1B receptor in rat spleen. The format is functional, tissue-based.

In assay [3] the target is T3, Alpha-1D adrenergic receptor (Rattus norvegicus) (UniProt P23944).
T3 sequence (whole entry): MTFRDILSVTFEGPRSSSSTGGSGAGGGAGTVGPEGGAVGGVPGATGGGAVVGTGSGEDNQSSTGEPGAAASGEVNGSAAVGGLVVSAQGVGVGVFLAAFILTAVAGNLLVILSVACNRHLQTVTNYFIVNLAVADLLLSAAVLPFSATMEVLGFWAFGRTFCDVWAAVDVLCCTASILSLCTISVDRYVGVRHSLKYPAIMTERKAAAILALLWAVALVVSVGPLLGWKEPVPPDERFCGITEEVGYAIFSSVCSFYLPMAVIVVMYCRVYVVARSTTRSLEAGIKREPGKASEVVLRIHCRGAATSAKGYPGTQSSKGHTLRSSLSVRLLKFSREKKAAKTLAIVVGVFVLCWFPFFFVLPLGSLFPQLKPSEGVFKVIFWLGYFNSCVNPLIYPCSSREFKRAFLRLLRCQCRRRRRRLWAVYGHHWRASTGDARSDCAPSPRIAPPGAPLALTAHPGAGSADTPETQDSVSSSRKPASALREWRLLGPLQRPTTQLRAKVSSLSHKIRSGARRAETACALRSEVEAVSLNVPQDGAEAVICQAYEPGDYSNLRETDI
As to the kind of experiment: Antagonist activity at adrenergic alpha 1D receptor in rat thoracic aorta. It counts as functional, tissue-based.

For assay [4], the target named is T4, Alpha-1A adrenergic receptor (Homo sapiens, UniProt P35348).
T4 sequence (P35348 whole entry): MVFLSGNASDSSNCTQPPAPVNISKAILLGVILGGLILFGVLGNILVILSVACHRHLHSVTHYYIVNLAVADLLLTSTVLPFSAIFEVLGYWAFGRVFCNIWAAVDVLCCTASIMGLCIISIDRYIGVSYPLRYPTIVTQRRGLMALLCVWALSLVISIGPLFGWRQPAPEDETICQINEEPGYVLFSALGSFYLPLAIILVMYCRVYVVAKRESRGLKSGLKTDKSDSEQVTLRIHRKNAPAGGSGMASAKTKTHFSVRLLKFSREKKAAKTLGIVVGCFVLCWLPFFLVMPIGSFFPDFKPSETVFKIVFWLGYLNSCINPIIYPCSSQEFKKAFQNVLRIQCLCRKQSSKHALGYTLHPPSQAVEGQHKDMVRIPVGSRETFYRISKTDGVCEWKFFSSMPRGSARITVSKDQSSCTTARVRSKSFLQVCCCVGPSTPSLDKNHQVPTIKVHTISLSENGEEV
The assay is described as follows: Displacement of [125I]BE2254 from human cloned adrenergic alpha 1A receptor expressed in HEK293 cells. The format is cell-based.

Assay [5] addresses T5, Alpha-1D adrenergic receptor (Homo sapiens, UniProt P25100).
T5 sequence (P25100 whole entry): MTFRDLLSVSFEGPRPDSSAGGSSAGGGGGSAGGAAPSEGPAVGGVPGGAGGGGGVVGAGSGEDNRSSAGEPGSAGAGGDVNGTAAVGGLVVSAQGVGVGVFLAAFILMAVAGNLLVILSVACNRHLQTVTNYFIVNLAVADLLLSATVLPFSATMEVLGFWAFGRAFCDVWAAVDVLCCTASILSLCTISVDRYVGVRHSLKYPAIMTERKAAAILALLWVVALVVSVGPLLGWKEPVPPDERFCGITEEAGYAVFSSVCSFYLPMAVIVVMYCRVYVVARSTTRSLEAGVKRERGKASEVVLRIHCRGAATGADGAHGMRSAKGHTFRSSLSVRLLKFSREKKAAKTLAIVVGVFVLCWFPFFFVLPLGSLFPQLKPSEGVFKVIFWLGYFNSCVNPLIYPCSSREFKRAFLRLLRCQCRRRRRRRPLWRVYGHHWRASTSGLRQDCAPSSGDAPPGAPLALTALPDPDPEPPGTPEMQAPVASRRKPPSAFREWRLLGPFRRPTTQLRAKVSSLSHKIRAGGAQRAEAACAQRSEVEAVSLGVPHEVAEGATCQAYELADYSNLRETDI
The assay is described as follows: Displacement of [125I]BE2254 from human cloned adrenergic alpha 1D receptor expressed in HEK293 cells. It counts as cell-based. The following applies: for Log Ki: hek293. (In a radioligand displacement assay an active substance lowers the binding of a labelled ligand.)

Assay [6] has as its target T6, Alpha-1B adrenergic receptor (Homo sapiens, UniProt P35368).
T6 sequence (P35368 whole entry): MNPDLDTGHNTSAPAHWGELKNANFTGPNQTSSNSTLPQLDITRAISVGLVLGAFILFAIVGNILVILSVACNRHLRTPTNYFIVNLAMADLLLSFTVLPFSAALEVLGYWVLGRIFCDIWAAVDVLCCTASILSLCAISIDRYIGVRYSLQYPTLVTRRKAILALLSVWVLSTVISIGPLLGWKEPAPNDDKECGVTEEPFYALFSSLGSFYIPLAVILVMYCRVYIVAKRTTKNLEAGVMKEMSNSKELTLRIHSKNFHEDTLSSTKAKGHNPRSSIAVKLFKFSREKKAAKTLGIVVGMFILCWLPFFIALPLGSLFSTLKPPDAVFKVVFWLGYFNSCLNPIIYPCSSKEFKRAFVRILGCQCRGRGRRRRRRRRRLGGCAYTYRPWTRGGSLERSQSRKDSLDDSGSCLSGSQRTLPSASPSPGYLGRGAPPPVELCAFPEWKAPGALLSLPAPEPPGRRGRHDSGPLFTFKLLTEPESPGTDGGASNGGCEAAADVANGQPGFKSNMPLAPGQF
The assay is described as follows: Displacement of [125I]BE2254 from human cloned adrenergic alpha 1B receptor expressed in HEK293 cells. The format is cell-based.

For `COc1ccccc1N1CCN(CCn2c(=O)[nH]c3c([nH]c4ccccc43)c2=O)CC1`, the values for the pKb in assay [1], in assay [2] and in assay [3] were 8.46, 8.67 and 8.71, respectively. In addition, in assay [4], the affinity, expressed as Ki, was 0.288 nM. Further, the “Log Ki” value in assay [5] is recorded as -9.44.

Take `O=c1[nH]c2c(sc3ccccc32)c(=O)n1CCN1CCN(c2ccc(Cl)c(Cl)c2)CC1`: the figures for the Ki in assay [6], in assay [4] and in assay [5] were 19100 nM, 4270 nM and 309 nM, respectively.

Turning to `COc1ccc(Cl)cc1N1CCN(CCn2c(=O)[nH]c3c(sc4ccccc43)c2=O)CC1`, the Ki was 91.2 nM in assay [6], 53.7 nM in assay [4] and 13.5 nM in assay [5].

Take `COc1ccccc1N1CCN(CCn2c(C)nc3c(sc4ccccc43)c2=O)CC1`: the pKb is 8.65 in assay [1], 7.63 in assay [2] and 8.98 in assay [3]. In addition, the inhibition constant Ki in assay [6] is 17.4 nM; in assay [4], 1.48 nM; in assay [5] it was 0.398 nM.

As for `COc1ccccc1N1CCN(CCn2c(=O)[nH]c3c(sc4ccccc43)c2=O)CC1`, the pKb in assay [1] amounted to 8.61; in assay [2], 8.44; in assay [3] it was 8.89. For the same molecule, the Ki in assay [6] was 8.91 nM; in assay [4], 3.31 nM; in assay [5] it was 1.26 nM.

Turning to `Cn1c(=O)n(CCN2CCN(c3ccc(Cl)c(Cl)c3)CC2)c(=O)c2c1c1ccccc1n2C`, the Ki in assay [6] was 603 nM; in assay [4], 182 nM; in assay [5], 437 nM.

For `COc1ccc(Cl)cc1N1CCN(CCn2c(C)nc3c(sc4ccccc43)c2=O)CC1`, the results for the pKb in assay [1], in assay [2] and in assay [3] were 7.52, 8.91 and 7.57, respectively. Also, the Ki was 17.4 nM in assay [6], 3.47 nM in assay [4] and 0.832 nM in assay [5].

With `COc1ccc(Cl)cc1N1CCN(CCn2c(C)nc3c([nH]c4ccccc43)c2=O)CC1`, the pKb was 7.6 in assay [1], 8.68 in assay [2] and 8.39 in assay [3]. Moreover, the inhibition constant (Ki) was 4.47 nM in assay [6], 1.32 nM in assay [4] and 0.166 nM in assay [5].

As to `Cc1nc2c([nH]c3ccccc32)c(=O)n1CCN1CCN(c2ccc(Cl)c(Cl)c2)CC1`, the Ki is 83.2 nM in assay [6], 30.2 nM in assay [4] and 7.41 nM in assay [5].

For `COc1ccc(Cl)cc1N1CCN(CCn2c(=O)[nH]c3c([nH]c4ccccc43)c2=O)CC1`, the values for the inhibition constant (Ki) in assay [6], in assay [4] and in assay [5] were 10.7 nM, 8.32 nM and 1.55 nM, respectively.

`COc1ccccc1N1CCN(CCn2c(C)nc3c4ccccc4nc-3c2O)CC1`: the negative logarithm of the Kb (pKb) in assay [1] was found to be 8.53; in assay [2], 9.73; in assay [3] it was 9.24. In addition, the entries for the “Log Ki” value in assay [4] (hek293) and in assay [5] were -8.52 and -9.39, respectively.

In general, pKb refers to −log10 of the Kb, conventionally taken in molar units. What is called Ki is a dissociation constant, usually derived from enzyme kinetics or from competition with a known ligand. A low value points to higher affinity.
